Patent publication US7153863B2, “Therapeutic compounds based on pyrazolopyridline derivatives” (SmithKline Beecham Corporation, priority 2002, dated 2006)

Test system: HSV-1
Assay: HSV-1 infection of Vero 76 cells, HSV DNA hybridization capture assay
Type: cell-based, herpes simplex virus 1
Conditions: Human alphaherpesvirus 1; HSV-1 (MOI=0.001) in Vero 76 cells, 40–48 hours at 37° C., viral DNA by hybridization/chemiluminescence
Procedure: Vero 76 cells were maintained in MEM with Earle's salts, L-glutamine, 8% FBS (Hyclone, A-1111-L) and 100 units/mL Penicillin-100 μg/mL Streptomycin. For assay conditions, FBS was reduced to 2%. Cells are seeded into 96-well tissue culture plates at a density of 5×10^4 cells/well after being incubated for 45 min at 37° C. in the presence of HSV-1 or HSV-2 (MOI=0.001). Test compounds are added to the wells and the plates are incubated at 37° C. for 40–48 hours. Cell lysates are prepared as follows: media was removed and replaced with 150 μL/well 0.2 N NaOH with 1% Igepal CA 630 or NP-40. Plates were incubated up to 14 days at room temperature in a humidified chamber to prevent evaporation.
For the detection probe, a gel-purified, digoxigenin-labeled, […] PCR fragment of the HSV UL-15 sequence was utilized. PCR conditions included 0.5 μM primers, 180 μM dTP, 20 μM dUTP-digoxigenin (Boehringer Mannheim 1558706), 200 μM each of dATP, dCTP, and dGTP, 1×PCR Buffer II (Perkin Elmer), 2.5 mM MgCl2, 0.025 units/μL of AmpliTaq Gold polymerase (Perkin Elmer), and 5 ng of gel-purified HSV DNA per 100 μL Extension conditions were 10 min at 95° C., followed by 30 cycles of 95° C. for 1 min, 55° C. for 30 sec, and 72° C. for 2 min. The amplification was completed with a 10-min incubation at 72° C. Primers were selected to amplify a 728 bp probe spanning a section of the HSV1 UL15 open reading frame (nucleotides 249–977). Single-stranded transcripts were purified with Promega M13 Wizard kits. The final product was mixed 1:1 with a mixture of 6 M GuSCN, 100 mM EDTA and 200 μg/mL herring sperm DNA and stored at 4° C.
The capture DNA plasmid (HSV UL13 region in pUC) was linearized by cutting with Xba I, denatured for 15 min at 95° C. and diluted immediately into Reacti-Bind DNA Coating Solution (Pierce, 17250, diluted 1:1 with TE buffer, pH 8) at 1 ng/μL 75 μL/well were added to Corning (#3922 or 9690) white 96-well plates and incubated at room temperature for at least 4 hrs before washing twice with 300 μL/well 0.2×SSC/0.05% Tween-20 (SSC/T buffer). The plates were then incubated overnight at room temperature with 150 μL/well 0.2 N NaOH, 1% IGEPAL and 10 μg/mL herring sperm DNA.
Twenty-seven (27) μL of cell lysate was combined with 45 μL of hybridization solution (final concentration: 3M GuSCN, 50 mM EDTA, 100 μg/ml salmon sperm DNA, 5× Denhardt's solution, 0.25×APE, and 5 ng of the digoxigenin-labeled detection probe). APE is 1.5 M NH4-acetate, 0.15 M ammonium phosphate monobasic, and 5 mM EDTA adjusted to pH 6.0. Mineral oil (50 μL) was added to prevent evaporation. The hybridization plates were incubated at 95° C. for 10 minutes to denature the DNA, then incubated at 42° C. overnight. The wells were washed 6× with 300 μL/well SSC/T buffer then incubated with 75 μL/well anti-digoxigenin-HRP-conjugated antibody (Boehringer Mannheim 1207733, 1:5000 in TE) for 30 min at room temperature. The wells were washed 6× with 300 μL/well with PBS/0.05% Tween-20 before 75 μL/well SuperSignal LBA substrate (Pierce) was added. The plates were incubated at room temperature for 30 minutes and chemiluminescence was measured in a Wallac Victor reader.
The following results were obtained for HSV-1.

Row | IC50 [µM] | Compound
1 | > 2.5 | c1cc(NC2CCCC2)n2nc(CCCN3CCCC3)c(-c3ccnc(NC4CCCC4)n3)c2c1 [Example 23, N-Cyclopentyl-3-[2-(cyclopentylamino)-4-pyrimidinyl]-2-[3-(1-pyrrolidinyl)propyl]pyrazolo[1,5-a]pyridin-7-amine]
2 | 24 | CC(C)Cc1nn2ccccc2c1-c1ccnc([S+](C)[O-])n1 (centres unmarked) [Example 6, 2-Isobutyl-3-[2-(methylsulfinyl)pyrimidin-4-yl]pyrazolo[1,5-a]pyridine]
